Source: ChEMBL document CHEMBL5252555, “Antimicrobial Polyketides from the Marine-Derived Fungus Spiromastix sp. SCSIO F190” (J Nat Prod, 2023)
Converted amounts (≈) assume the structure as drawn. The source made the active and inactive calls. The rule behind the calls is not given here.

Legend:
HepG2 = assay: Cytotoxicity against human HepG2 cells incubated for 48 hrs by CCK-8 assay; format: functional, cell-based
HeLa = assay: Cytotoxicity against human HeLa cells incubated for 48 hrs by CCK-8 assay; format: functional, cell-based
Staphylococcus aureus [1] = assay: Antibacterial activity against Staphylococcus aureus ATCC 29213 assessed as inhibition of bacterial growth incubated for 18 hrs by broth microdilution method; format: functional
Staphylococcus aureus [2] = assay: Antibacterial activity against Staphylococcus aureus 16339 assessed as inhibition of bacterial growth incubated for 18 hrs by broth microdilution method; format: functional
Staphylococcus aureus [3] = assay: Antibacterial activity against Staphylococcus aureus 1862 assessed as inhibition of bacterial growth incubated for 18 hrs by broth microdilution method; format: functional
Staphylococcus aureus [4] = assay: Antibacterial activity against Staphylococcus aureus 3090 assessed as inhibition of bacterial growth incubated for 18 hrs by broth microdilution method; format: functional
Staphylococcus aureus [5] = assay: Antibacterial activity against Staphylococcus aureus 991 assessed as inhibition of bacterial growth incubated for 18 hrs by broth microdilution method; format: functional
Staphylococcus aureus [6] = assay: Antibacterial activity against Staphylococcus aureus 669 assessed as inhibition of bacterial growth incubated for 18 hrs by broth microdilution method; format: functional
Staphylococcus aureus [7] = assay: Antibacterial activity against Staphylococcus aureus 745324 assessed as inhibition of bacterial growth incubated for 18 hrs by broth microdilution method; format: functional
Staphylococcus aureus [8] = assay: Antibacterial activity against Staphylococcus aureus 16162 assessed as inhibition of bacterial growth incubated for 18 hrs by broth microdilution method; format: functional
Enterococcus faecalis [9] = assay: Antibacterial activity against Enterococcus faecalis ATCC 29212 assessed as inhibition of bacterial growth incubated for 18 hrs by broth microdilution method; format: functional
Staphylococcus aureus [10] = assay: Antibacterial activity against Staphylococcus aureus GDE4P037P assessed as inhibition of bacterial growth incubated for 18 hrs by broth microdilution method; format: functional
Enterococcus faecalis [11] = assay: Antibacterial activity against Enterococcus faecalis 36950 assessed as inhibition of bacterial growth incubated for 18 hrs by broth microdilution method; format: functional
Micrococcus luteus = assay: Antibacterial activity against Micrococcus luteus ML01 assessed as inhibition of bacterial growth incubated for 18 hrs by broth microdilution method; format: functional
Staphylococcus simulans = assay: Antibacterial activity against Staphylococcus simulans AKA1 assessed as inhibition of bacterial growth incubated for 18 hrs by broth microdilution method; format: functional
Enterococcus faecium [12] = assay: Antibacterial activity against Enterococcus faecium 36235 assessed as inhibition of bacterial growth incubated for 18 hrs by broth microdilution method; format: functional
Bacillus subtilis = assay: Antibacterial activity against Bacillus subtilis BS01 assessed as inhibition of bacterial growth incubated for 18 hrs by broth microdilution method; format: functional
Enterococcus faecium [13] = assay: Antibacterial activity against Enterococcus faecium 35682 assessed as inhibition of bacterial growth incubated for 18 hrs by broth microdilution method; format: functional
Enterococcus gallinarum = assay: Antibacterial activity against Enterococcus gallinarum 5F52C assessed as inhibition of bacterial growth incubated for 18 hrs by broth microdilution method; format: functional
Enterococcus faecium [14] = assay: Antibacterial activity against Enterococcus faecium 36711 assessed as inhibition of bacterial growth incubated for 18 hrs by broth microdilution method; format: functional
Staphylococcus aureus [15] = assay: Antibacterial activity against Staphylococcus aureus 718306 assessed as inhibition of bacterial growth incubated for 18 hrs by broth microdilution method; format: functional
Staphylococcus aureus [16] = assay: Antibacterial activity against Staphylococcus aureus 6917 assessed as inhibition of bacterial growth incubated for 18 hrs by broth microdilution method; format: functional
Staphylococcus aureus [17] = assay: Antibacterial activity against methicillin-resistant Staphylococcus aureus assessed as inhibition of bacterial growth incubated for 18 hrs by broth microdilution method; format: functional
[18] = Cytotoxicity against human LX2 cells incubated for 48 hrs by CCK-8 assay; format: toxicity, cell-based; details: lx-2, 48 h
RBE = assay: Cytotoxicity against human RBE cells incubated for 48 hrs by CCK-8 assay; format: functional, cell-based
HCT-116 = assay: Cytotoxicity against human HCT-116 cells incubated for 48 hrs by CCK-8 assay; format: functional, cell-based
MCF7 = assay: Cytotoxicity against human MCF7 cells incubated for 48 hrs by CCK-8 assay; format: functional, cell-based
A549 = assay: Cytotoxicity against human A549 cells incubated for 48 hrs by CCK-8 assay; format: functional, cell-based
HUVEC = assay: Cytotoxicity against HUVEC cells incubated for 48 hrs by CCK-8 assay; format: toxicity, cell-based; details: human

Structure (SMILES)	Activity (HepG2)	Activity (HeLa)	MIC (Staphylococcus aureus [1])	MIC (Staphylococcus aureus [2])	MIC (Staphylococcus aureus [3])	MIC (Staphylococcus aureus [4])	MIC (Staphylococcus aureus [5])	MIC (Staphylococcus aureus [6])	MIC (Staphylococcus aureus [7])	MIC (Staphylococcus aureus [8])	MIC (Enterococcus faecalis [9])	MIC (Staphylococcus aureus [10])	MIC (Enterococcus faecalis [11])	MIC (Micrococcus luteus)	MIC (Staphylococcus simulans)	MIC (Enterococcus faecium [12])	MIC (Bacillus subtilis)	MIC (Enterococcus faecium [13])	MIC (Enterococcus gallinarum)	MIC (Enterococcus faecium [14])	further results
CCCc1c(Cl)c(OC)c(Cl)c(Oc2c(Cl)c(O)c(Cl)c3c2C(=O)O[C@H](C)C3)c1OC	inactive	inactive	4 µg/mL (≈ 7.84 µM)	4 µg/mL (≈ 7.84 µM)	4 µg/mL (≈ 7.84 µM)	4 µg/mL (≈ 7.84 µM)	4 µg/mL (≈ 7.84 µM)	4 µg/mL (≈ 7.84 µM)	4 µg/mL (≈ 7.84 µM)	4 µg/mL (≈ 7.84 µM)	8 µg/mL (≈ 15.7 µM)	8 µg/mL (≈ 15.7 µM)	4 µg/mL (≈ 7.84 µM)	2 µg/mL (≈ 3.92 µM)	4 µg/mL (≈ 7.84 µM)	16 µg/mL (≈ 31.4 µM)	2 µg/mL (≈ 3.92 µM)	32 µg/mL (≈ 62.7 µM)	4 µg/mL (≈ 7.84 µM)	8 µg/mL (≈ 15.7 µM)	MIC (Staphylococcus aureus [15]): 8 µg/mL (≈ 15.7 µM); MIC (Staphylococcus aureus [16]): 8 µg/mL (≈ 15.7 µM); MIC (Staphylococcus aureus [17]): 4 µg/mL (≈ 7.84 µM); Activity [18]: Non-Toxic; Activity (RBE): inactive; Activity (HCT-116): inactive; Activity (MCF7): inactive; Activity (A549): inactive; Activity (HUVEC): Non-Toxic
CCCCC/C=C1/C(=O)C(CC=C(C)C)=C(C)C1O (stereo unspecified)	inactive	inactive	> 128 µg/mL	> 128 µg/mL	> 128 µg/mL	> 128 µg/mL	> 128 µg/mL	> 128 µg/mL	> 128 µg/mL	> 128 µg/mL	> 128 µg/mL	> 128 µg/mL	> 128 µg/mL	> 128 µg/mL	> 128 µg/mL	> 128 µg/mL	> 128 µg/mL	> 128 µg/mL	> 128 µg/mL	> 128 µg/mL	MIC (Staphylococcus aureus [15]): > 128 µg/mL; MIC (Staphylococcus aureus [16]): > 128 µg/mL; MIC (Staphylococcus aureus [17]): > 128 µg/mL; Activity [18]: Non-Toxic; Activity (RBE): inactive; Activity (HCT-116): inactive; Activity (MCF7): inactive; Activity (A549): inactive; Activity (HUVEC): Non-Toxic
CCCc1cc(Oc2c(O)c(Cl)c(O)c(Cl)c2CCC)c(Cl)c(OC)c1Cl	inactive	inactive	2 µg/mL (≈ 4.4 µM)	2 µg/mL (≈ 4.4 µM)	2 µg/mL (≈ 4.4 µM)	2 µg/mL (≈ 4.4 µM)	2 µg/mL (≈ 4.4 µM)	2 µg/mL (≈ 4.4 µM)	2 µg/mL (≈ 4.4 µM)	2 µg/mL (≈ 4.4 µM)	2 µg/mL (≈ 4.4 µM)	2 µg/mL (≈ 4.4 µM)	0.5 µg/mL (≈ 1.1 µM)	1 µg/mL (≈ 2.2 µM)	2 µg/mL (≈ 4.4 µM)	1 µg/mL (≈ 2.2 µM)	1 µg/mL (≈ 2.2 µM)	2 µg/mL (≈ 4.4 µM)	4 µg/mL (≈ 8.81 µM)	2 µg/mL (≈ 4.4 µM)	MIC (Staphylococcus aureus [15]): 1 µg/mL (≈ 2.2 µM); MIC (Staphylococcus aureus [16]): 2 µg/mL (≈ 4.4 µM); MIC (Staphylococcus aureus [17]): 2 µg/mL (≈ 4.4 µM); Activity [18]: Non-Toxic; Activity (RBE): inactive; Activity (HCT-116): inactive; Activity (MCF7): inactive; Activity (A549): inactive; Activity (HUVEC): Non-Toxic
CCCc1c(O)c(Oc2c(Cl)c(O)c(Cl)c3c2C(=O)O[C@H](C)C3)cc(OC)c1Cl	inactive	inactive	8 µg/mL (≈ 17.3 µM)	16 µg/mL (≈ 34.7 µM)	16 µg/mL (≈ 34.7 µM)	8 µg/mL (≈ 17.3 µM)	8 µg/mL (≈ 17.3 µM)	16 µg/mL (≈ 34.7 µM)	16 µg/mL (≈ 34.7 µM)	16 µg/mL (≈ 34.7 µM)	32 µg/mL (≈ 69.3 µM)	32 µg/mL (≈ 69.3 µM)	16 µg/mL (≈ 34.7 µM)	8 µg/mL (≈ 17.3 µM)	8 µg/mL (≈ 17.3 µM)	32 µg/mL (≈ 69.3 µM)	8 µg/mL (≈ 17.3 µM)	16 µg/mL (≈ 34.7 µM)	16 µg/mL (≈ 34.7 µM)	16 µg/mL (≈ 34.7 µM)	MIC (Staphylococcus aureus [15]): 16 µg/mL (≈ 34.7 µM); MIC (Staphylococcus aureus [16]): 16 µg/mL (≈ 34.7 µM); MIC (Staphylococcus aureus [17]): 8 µg/mL (≈ 17.3 µM); Activity [18]: Non-Toxic; Activity (RBE): inactive; Activity (HCT-116): inactive; Activity (MCF7): inactive; Activity (A549): inactive; Activity (HUVEC): Non-Toxic
